Results from patent publication US20220056014A1, “PHENYLPYRROLIDINE COMPOUND AND USE THEREOF” (WUHAN HUMANWELL INNOVATIVE DRUG RESEARCH AND DEVELOPMENT …, priority 2018, published 2022).
Like-named read-outs stand apart in the source and are kept apart here.

What was measured:
[1] = Mouse pharmacokinetic test; format: in vivo, CD-1 mice; conditions: male, CD-1, plasma, oral gavage 10 mg/kg
Description: (§1) In the rat pharmacokinetic test, 3 male SD rats (180-240 g) were fasted overnight, and orally administered with 10 mg/kg of compound to be tested. Blood was collected before the administration, and 15 min, 30 min, 1 h, 2 h, 4 h, 8 h, and 24 h hours after the administration. The blood sample was centrifuged at 8000 rpm for 6 min at 4° C., and the plasma was collected and stored at −20° C. The plasma collected at each time point was added and mixed with 3-5 times the amount of acetonitrile solution containing an internal standard, vortexed for 1 min, centrifuged at 13,000 rpm for 10 min at 4° C. The supernatant was taken and mixed with 3 times the amount of water, and an appropriate amount of the mixture was taken for LC-MS/MS analysis. The main pharmacokinetic parameters were analyzed with WinNonlin 7.0 software non-compartmental model.
(§2) In the mouse pharmacokinetic test, 9 male CD-1 mice (20-25 g) were fasted overnight, and orally administered with 10 mg/kg of the compound to be tested. Bloods of 3 mice were collected at each time point, and bloods of 9 mice were alternately collected in total. In the pharmacokinetic test in canine, 3 male beagle dogs (8-10 kg) were fasted overnight, and orally administered with 5 mg/kg of the compound to be test. In the pharmacokinetic test of cynomolgus monkeys, 3 male cynomolgus monkeys (4 to 6.5 kg) were fasted overnight, and orally administered 20 mg/kg of the compound to be test. The remaining processes are the same as those of the rat pharmacokinetic test.

Rat pharmacokinetic test = format: in vivo, SD rats; conditions: male, Sprague-Dawley (SD), plasma, oral gavage 10 mg/kg
Description: as §1

[2] = Pharmacokinetic test in canine; format: in vivo, beagle dogs; conditions: male, beagle, dog, plasma, oral gavage 5 mg/kg
Description: as §1, §2

PDE4B = molecular target: T1, PDE4B (Homo sapiens, UniProt Q07343); assay: PDE4B enzyme activity assay (PDE-Glo Phosphodiesterase Assay Kit); format: biochemical; conditions: for IC50 (PDE4D)/IC50 (PDE4B): selectivity ratio
T1 construct: purchased Enzo Life Sciences BML-SE522-0020
T1 sequence (Q07343 whole entry): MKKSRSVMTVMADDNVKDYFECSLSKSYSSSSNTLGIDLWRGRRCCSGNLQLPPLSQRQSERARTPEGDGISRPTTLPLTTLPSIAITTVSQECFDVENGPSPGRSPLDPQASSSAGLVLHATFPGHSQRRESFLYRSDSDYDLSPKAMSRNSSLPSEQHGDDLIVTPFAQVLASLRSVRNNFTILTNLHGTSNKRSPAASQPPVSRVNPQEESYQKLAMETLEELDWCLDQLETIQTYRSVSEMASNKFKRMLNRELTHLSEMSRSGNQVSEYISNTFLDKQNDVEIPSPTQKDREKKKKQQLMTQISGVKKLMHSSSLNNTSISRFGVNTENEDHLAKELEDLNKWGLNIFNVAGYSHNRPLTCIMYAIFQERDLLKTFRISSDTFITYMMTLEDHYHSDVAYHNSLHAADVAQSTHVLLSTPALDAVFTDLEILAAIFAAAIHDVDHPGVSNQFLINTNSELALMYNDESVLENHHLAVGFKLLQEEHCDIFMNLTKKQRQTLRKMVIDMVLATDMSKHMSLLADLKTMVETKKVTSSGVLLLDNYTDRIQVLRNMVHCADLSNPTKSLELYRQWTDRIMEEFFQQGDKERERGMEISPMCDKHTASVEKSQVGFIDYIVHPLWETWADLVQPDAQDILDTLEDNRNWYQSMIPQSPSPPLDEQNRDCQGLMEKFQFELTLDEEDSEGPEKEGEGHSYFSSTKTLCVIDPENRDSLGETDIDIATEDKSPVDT
Method in brief: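 Recombinant human PDE4B (1 ng/μl working solution) or PDE4D (4 ng/μl working solution) preincubated 5 min at RT with compound, then reacted 20 min with cAMP (2 μM in added solution). PDE-Glo termination/detection and Kinase-Glo steps followed; luminescence read and IC50 fitted.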

[3] = tested on: LPS-stimulated TNF-α release; assay: LPS-stimulated TNF-α release in mice; format: in vivo, Balb/c mice; conditions: Mus musculus, oral 50 mg/kg (positive control 100 mg/kg), 1 mg/kg LPS i.p.
Method in brief: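 Balb/c mice (6 per group) dosed orally with 50 mg/kg compound, then 1 mg/kg LPS i.p. 30 min later; serum taken 90 or 120 min post-LPS. Serum TNF-α measured by ELISA; inhibition % calculated relative to model and blank (PBS) groups.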

[4] = Pharmacokinetic test of cynomolgus monkeys; format: in vivo; conditions: male, plasma; cynomolgus monkey, oral gavage 20 mg/kg
Description: as §1, §2

[5] = 1.5 h, blood 90 min after LPS, read-out: Inhibition rate (%) of LPS-stimulated TNF-α release, 90 min
[6] = 2 h, blood 120 min after LPS, read-out: Inhibition rate (%) of LPS-stimulated TNF-α release, 120 min

AUC(0-t) [1] [ng·h/mL]	Cmax [1] [ng/mL]	Tmax [1] [min]	AUC(0-t) (Rat pharmacokinetic test) [ng·h/mL]	Cmax (Rat pharmacokinetic test) [ng/mL]	Tmax (Rat pharmacokinetic test) [min]	AUC(0-t) [2] [ng·h/mL]	Cmax [2] [ng/mL]	Tmax [2] [min]	IC50 (PDE4B) [nM]	IC50 (PDE4D)/IC50 (PDE4B) (PDE4B)	AUC(0-t) [4] [ng·h/mL]	Cmax [4] [ng/mL]	Tmax [4] [min]	SMILES	inhibition in vivo at 50 mg/kg [3, 5] [%]	inhibition in vivo at 50 mg/kg [3, 6] [%]
896	378	30	2480	823	25.2	1740	484	49.8	0.93	1.20	–	–	–	COc1ccc([C@@H]2CN(C(=O)[C@@H](O)CO)C[C@@]2(C)[C@@H](C)O)cc1OC1CN(c2ncc(C)cc2F)C1 [Compound 004, (S)-1-((3S,4S)-4-(3-((1-(3-fluoro-5-methylpyridin-2-yl)azetidin-3-yl)oxy)-4-methoxyphenyl)-3-((R)-1-hydroxyethyl)-3-methylpyrrolidin-1-yl)-2,3-dihydroxypropan-1-one]	39.6	58.6
332	125	30	1530	735	30	1690	689	15	1.17	3.37	44400	13800	105	COc1ccc([C@@H]2CN(C(=O)[C@@H](O)CO)C[C@@]2(C)[C@@H](C)O)cc1OC1CN(c2ccc(C)c(C)n2)C1 [Compound 007, (S)-1-((3S,4S)-4-(3-((1-(5,6-dimethylpyridin-2-yl)azetidin-3-yl)oxy)-4-methoxyphenyl)-3-((R)-1-hydroxyethyl)-3-methylpyrrolidin-1-yl)-2,3-dihydroxypropan-1-one]	52.1	66.4
1050	316	30	294	126	25.2	1420	356	49.8	2.31	0.46	–	–	–	COc1ccc([C@@H]2CN(C(=O)[C@@H](O)CO)C[C@@]2(C)[C@@H](C)O)cc1OC1CN(c2ccc(Cl)c(C)n2)C1 [Compound 011, (S)-1-((3S,4S)-4-(3-((1-(5-chloro-6-methylpyridin-2-yl)azetidin-3-yl)oxy)-4-methoxyphenyl)-3-((R)-1-hydroxyethyl)-3-methylpyrrolidin-1-yl)-2,3-dihydroxypropan-1-one]	47.4	63.3
237	142	15	190	68.2	30	423	159	55.2	2.1	0.20	3640	565	90	COc1ccc([C@@H]2CN(C(=O)[C@@H](O)CO)C[C@@]2(C)[C@@H](C)O)cc1OC1CN(c2ccc(C)cn2)C1 [Positive control compound, reference compound]	44.4	49
